Laboratory results: patent US11306084B2, “Integrin antagonists” (Saint Louis University, priority 2016, dated 2022)
Where a name gives a salt, the structure may show the parent alone.

What was measured:
Assay type in all cases: binding
[1] = molecular target: T1, Recombinant human integrin ανβ1 (Homo sapiens, UniProt P05556+P06756); test: Solid Phase Receptor Assay (SPRA) for ανβ1 function; details: plate-bound human fibronectin; read-out: αvβ1 SPRA IC50
T1 construct: purchased R&D Systems 6579-AV
T1 sequence (P06756 31-992 limits assumed): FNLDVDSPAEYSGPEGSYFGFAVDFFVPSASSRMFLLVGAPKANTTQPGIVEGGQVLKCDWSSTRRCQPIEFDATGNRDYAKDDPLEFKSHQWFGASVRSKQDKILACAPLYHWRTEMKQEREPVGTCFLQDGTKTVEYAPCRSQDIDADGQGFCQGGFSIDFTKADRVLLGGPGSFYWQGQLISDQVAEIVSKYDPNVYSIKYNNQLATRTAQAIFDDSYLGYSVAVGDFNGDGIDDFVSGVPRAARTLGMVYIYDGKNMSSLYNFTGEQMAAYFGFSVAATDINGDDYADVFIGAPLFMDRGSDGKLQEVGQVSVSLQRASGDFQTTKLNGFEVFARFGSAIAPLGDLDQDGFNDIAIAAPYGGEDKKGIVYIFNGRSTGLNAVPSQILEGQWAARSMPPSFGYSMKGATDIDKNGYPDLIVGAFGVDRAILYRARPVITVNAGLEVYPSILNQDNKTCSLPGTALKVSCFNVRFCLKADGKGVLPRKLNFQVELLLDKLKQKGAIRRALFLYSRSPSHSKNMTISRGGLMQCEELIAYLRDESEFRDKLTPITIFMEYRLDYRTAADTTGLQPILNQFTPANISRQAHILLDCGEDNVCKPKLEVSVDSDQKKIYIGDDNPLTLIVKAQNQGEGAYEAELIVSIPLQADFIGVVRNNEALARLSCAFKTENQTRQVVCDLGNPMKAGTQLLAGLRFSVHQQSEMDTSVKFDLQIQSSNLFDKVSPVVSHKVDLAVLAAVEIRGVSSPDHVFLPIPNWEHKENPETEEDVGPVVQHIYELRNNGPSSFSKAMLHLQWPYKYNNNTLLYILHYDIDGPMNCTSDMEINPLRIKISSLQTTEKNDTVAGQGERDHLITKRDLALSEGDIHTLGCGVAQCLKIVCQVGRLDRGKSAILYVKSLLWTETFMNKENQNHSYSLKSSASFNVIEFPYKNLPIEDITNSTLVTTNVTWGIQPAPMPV
T1 sequence (P05556 21-728 limits assumed): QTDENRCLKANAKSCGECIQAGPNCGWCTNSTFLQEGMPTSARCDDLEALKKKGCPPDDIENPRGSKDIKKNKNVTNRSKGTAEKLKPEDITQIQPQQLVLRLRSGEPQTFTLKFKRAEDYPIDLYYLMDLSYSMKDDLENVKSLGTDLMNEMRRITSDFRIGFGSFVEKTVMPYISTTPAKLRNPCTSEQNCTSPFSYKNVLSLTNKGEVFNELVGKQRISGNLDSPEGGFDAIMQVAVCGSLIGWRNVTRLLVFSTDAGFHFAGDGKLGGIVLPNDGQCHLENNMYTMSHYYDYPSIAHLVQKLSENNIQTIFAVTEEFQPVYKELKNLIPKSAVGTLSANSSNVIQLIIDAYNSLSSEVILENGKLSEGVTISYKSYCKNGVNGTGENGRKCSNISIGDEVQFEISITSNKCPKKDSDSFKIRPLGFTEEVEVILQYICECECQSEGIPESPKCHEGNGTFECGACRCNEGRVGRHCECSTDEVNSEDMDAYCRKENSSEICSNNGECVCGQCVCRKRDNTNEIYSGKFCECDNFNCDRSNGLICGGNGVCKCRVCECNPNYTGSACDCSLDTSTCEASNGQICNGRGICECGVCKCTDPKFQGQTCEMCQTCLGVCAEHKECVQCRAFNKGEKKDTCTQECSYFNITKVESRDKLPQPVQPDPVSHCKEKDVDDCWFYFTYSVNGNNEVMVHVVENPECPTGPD
Experimental: B. Solid Phase Receptor Assay (SPRA) for ανβ1 Function
Wells were washed 3 times with 150 μL TBS+ and then 150 μL of blocking buffer (TBS+ with 1% bovine serum albumin, Sigma A7906) was added. The plate was incubated for 1 hr at 37° C. and then washed 3× with TBS+ buffer. […] Compounds were diluted to 20 μM and 1 μL was added to each well of the plate according to a standard template with each sample repeated in triplicate. After incubation for two hours at room temperature, the plate was washed 3 with 150 μL of TBS+ buffer. To each well, 50 μL of biotinylated anti-αν antibody (R&D Systems, BAF1219) at 1 μg/mL in TBS+/0.1% BSA were added and the plate covered and incubated for 1 hr at room temperature. After washing the plate 3× with 150 μL of TBS+ buffer, 50 μL of streptavidin-conjugated horseradish peroxidase (R&D Systems, DY998) diluted in TBS+ blocking buffer were added to the wells and the plate incubated for 20 min at room temperature. The plate was washed 3× with TBS+ buffer followed by 50 μL of TMB substrate (Sigma, T4444) added to each well in the dark and the plate incubated for 25 min at room temperature. 25 μL of 1.0 M phosphoric acid was added as a stop solution and the plates were read at 450 nm using a Spectramax plate reader.

[2] = molecular target: T2, Recombinant human integrin ανβ3 (Homo sapiens, UniProt P05106+P06756); test: Solid Phase Receptor Assay (SPRA) for ανβ3 function; details: plate-bound human vitronectin; read-out: αvβ3 SPRA IC50
T2 construct: purchased R&D Systems 3050-AV
T2 sequence (P06756 31-992 limits assumed): as the sequence (P06756 31-992 limits assumed) above
T2 sequence (P05106 27-718 limits assumed): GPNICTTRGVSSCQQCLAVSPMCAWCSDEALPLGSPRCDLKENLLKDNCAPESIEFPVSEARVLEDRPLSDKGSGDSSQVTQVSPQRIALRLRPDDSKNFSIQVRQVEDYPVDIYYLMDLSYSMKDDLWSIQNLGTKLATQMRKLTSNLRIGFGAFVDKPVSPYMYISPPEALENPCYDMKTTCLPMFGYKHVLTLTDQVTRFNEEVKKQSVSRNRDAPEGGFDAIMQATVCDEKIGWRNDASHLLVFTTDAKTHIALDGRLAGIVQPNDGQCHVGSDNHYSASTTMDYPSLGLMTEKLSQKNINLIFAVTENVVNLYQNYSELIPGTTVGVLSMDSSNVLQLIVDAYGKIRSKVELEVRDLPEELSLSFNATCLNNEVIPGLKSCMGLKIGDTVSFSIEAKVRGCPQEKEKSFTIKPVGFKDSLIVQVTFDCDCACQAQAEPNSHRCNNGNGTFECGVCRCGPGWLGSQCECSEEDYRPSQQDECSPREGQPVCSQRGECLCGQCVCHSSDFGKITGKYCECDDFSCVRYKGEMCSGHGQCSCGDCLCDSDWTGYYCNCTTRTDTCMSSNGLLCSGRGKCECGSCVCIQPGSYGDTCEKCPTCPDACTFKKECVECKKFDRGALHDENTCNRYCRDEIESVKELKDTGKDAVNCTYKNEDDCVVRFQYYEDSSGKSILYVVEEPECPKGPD
Experimental: C. Solid Phase Receptor Assay (SPRA) for ανβ3 Function
Wells were washed 3 times with 150 μL TBS+ and then 150 μL of blocking buffer (TBS+ with 1% bovine serum albumin, Sigma A7906) was added. The plate was incubated for 1 hr at 37° C. and then washed 3× with TBS+ buffer. […] Compounds were diluted to 20 μM and then 1 μL was added to each well of the plate according to a standard template with each sample repeated in triplicate. After incubation for two hours at room temperature, the plate was washed 3× with 150 μL of TBS+ buffer. To each well, 50 μL of biotinylated anti-αν antibody (R&D Systems, BAF1219) at 0.5 μg/mL in TBS+/0.1% BSA were added and the plate covered and incubated for 1 hr at room temperature. After washing the plate 3× with 150 μL of TBS+ buffer, 50 μL of streptavidin-conjugated horseradish peroxidase (R&D Systems, DY998) diluted in TBS+ blocking buffer were added to the wells and the plate incubated for 20 min at room temperature. The plate was washed 3× with TBS+ buffer followed by 50 μL of TMB substrate (Sigma, T4444) added to each well in the dark and the plate was incubated for 25 min at room temperature. 25 μL of 1.0 M phosphoric acid was added as a stop solution and the plates were read at 450 nm using a Spectramax plate reader.

[3] = molecular target: T3, Recombinant human integrin ανβ6 (Homo sapiens, UniProt P06756+P18564); test: Solid Phase Receptor Assay (SPRA) for ανβ6 function; details: plate-bound human LAP; read-out: αvβ6 SPRA IC50
T3 construct: purchased R&D Systems 3817-AV
T3 sequence (P06756 31-992 limits assumed): as the sequence (P06756 31-992 limits assumed) above
T3 sequence (P18564 22-707 limits assumed): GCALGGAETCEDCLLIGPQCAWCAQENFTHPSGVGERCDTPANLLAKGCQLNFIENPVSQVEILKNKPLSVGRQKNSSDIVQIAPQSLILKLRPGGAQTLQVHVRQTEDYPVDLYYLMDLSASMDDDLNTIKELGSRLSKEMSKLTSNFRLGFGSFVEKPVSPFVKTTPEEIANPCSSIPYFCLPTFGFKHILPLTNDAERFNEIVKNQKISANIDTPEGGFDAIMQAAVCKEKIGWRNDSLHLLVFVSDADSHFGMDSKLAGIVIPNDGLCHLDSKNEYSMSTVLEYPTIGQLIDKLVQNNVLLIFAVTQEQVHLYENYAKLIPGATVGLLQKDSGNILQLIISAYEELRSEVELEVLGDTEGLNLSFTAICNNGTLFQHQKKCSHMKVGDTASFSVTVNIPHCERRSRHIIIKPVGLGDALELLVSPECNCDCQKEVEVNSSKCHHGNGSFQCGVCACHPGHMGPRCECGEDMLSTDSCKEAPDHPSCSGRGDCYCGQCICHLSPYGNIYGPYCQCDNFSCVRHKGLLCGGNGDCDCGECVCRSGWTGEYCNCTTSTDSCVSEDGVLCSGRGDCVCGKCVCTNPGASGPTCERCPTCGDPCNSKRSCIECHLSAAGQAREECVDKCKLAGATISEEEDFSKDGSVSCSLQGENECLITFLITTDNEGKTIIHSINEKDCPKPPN
Experimental: E. Solid Phase Receptor Assay (SPRA) for ανβ6 Function
Wells were washed 3 times with 150 μL TBS+, and then 150 μL of blocking buffer (TBS+ with 1% bovine serum albumin, Sigma A7906) was added. The plate was incubated for 1 hr at 37° C., and then washed 3× with TBS+ buffer. […] Compounds were diluted to 20 μM and then 1 μL was added to each well of the plate according to a standard template with each sample repeated in triplicate. After incubation for two hours at room temperature, the plate was washed 3× with 150 μL of TBS+ buffer. To each well, 50 μL of biotinylated anti-αν antibody (R&D Systems, BAF1219) at 0.5 μg/mL in TBS+/0.1% BSA were added and the plate was covered and incubated for 1 hr at room temperature. After washing the plate 3× with 150 μL of TBS+ buffer, 50 μL of streptavidin-conjugated horseradish peroxidase (R&D Systems, DY998) diluted in TBS+ blocking buffer were added to the wells and the plate incubated for 20 min at room temperature. The plate was washed 3× with TBS+ buffer followed by 50 μL of TMB substrate (Sigma T4444) added to each well in the dark and the plate incubated for 10 min at room temperature. 25 μL of 1.0 M phosphoric acid was added as a stop solution and the plates were read at 450 nm using a Spectramax plate reader.

[4] = molecular target: T4, Recombinant human integrin ανβ8 (Homo sapiens, UniProt P06756+P26012); test: Solid Phase Receptor Assay (SPRA) for ανβ8 function; details: plate-bound human LAP; read-out: αvβ8 SPRA IC50
T4 construct: purchased R&D Systems 4135-AV
T4 sequence (P06756 31-992 limits assumed): as the sequence (P06756 31-992 limits assumed) above
T4 sequence (P26012 43-684 limits assumed): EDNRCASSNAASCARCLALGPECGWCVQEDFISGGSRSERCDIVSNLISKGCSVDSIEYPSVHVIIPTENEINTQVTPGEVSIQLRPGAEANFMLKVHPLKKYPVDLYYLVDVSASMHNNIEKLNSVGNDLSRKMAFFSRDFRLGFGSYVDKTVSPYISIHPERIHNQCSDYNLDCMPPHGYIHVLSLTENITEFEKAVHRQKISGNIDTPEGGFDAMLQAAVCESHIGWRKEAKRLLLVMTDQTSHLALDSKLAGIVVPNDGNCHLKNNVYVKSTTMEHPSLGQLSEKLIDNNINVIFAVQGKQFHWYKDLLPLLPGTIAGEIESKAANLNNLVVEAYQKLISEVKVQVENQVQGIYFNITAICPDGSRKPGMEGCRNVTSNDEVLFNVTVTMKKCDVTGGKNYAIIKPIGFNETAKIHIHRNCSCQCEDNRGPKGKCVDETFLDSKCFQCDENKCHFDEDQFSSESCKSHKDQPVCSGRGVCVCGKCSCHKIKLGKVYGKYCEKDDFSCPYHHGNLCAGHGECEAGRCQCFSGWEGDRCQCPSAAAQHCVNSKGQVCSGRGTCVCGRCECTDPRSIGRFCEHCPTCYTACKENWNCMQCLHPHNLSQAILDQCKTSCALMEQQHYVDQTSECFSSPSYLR
Experimental: F. Solid Phase Receptor Assay (SPRA) for ανβ8 Function
Wells were washed 3 times with 150 μL TBS+ and then 150 μL of blocking buffer (TBS+ with 1% bovine serum albumin, Sigma A7906) was added. The plate was incubated for 1 hr at 37° C. and then washed 3× with TBS+. […] Compounds were diluted to 20 μM and 1 μL was added to each well of the plate according to a standard template with each sample repeated in triplicate. After incubation for two hours at room temperature, the plate was washed 3× with 150 μL of TBS+. To each well, 50 μL of biotinylated anti-αν antibody (R&D Systems, BAF1219) at 1 μg/mL in TBS+/0.1% BSA were added and the plate was covered and incubated for 1 hr at room temperature. After washing the plate 3× with 150 μL. of TBS+ buffer, 50 μL of streptavidin-conjugated horseradish peroxidase (R&D Systems, DY998) diluted in TBS+ blocking buffer were added to the wells and the plate incubated for 20 min at room temperature. The plate was washed 3× with TBS+ followed by 50 μL of TMB substrate (Sigma T4444) added to each well in the dark and the plate incubated for 10 min at room temperature. 25 μL of 1.0 M phosphoric acid was added as a stop solution and the plates were read at 450 nm using a Spectramax plate reader.

Cn1nc(CC(CC(=O)O)c2cc(C(C)(C)C)cc(C(C)(C)C)c2)cc1OCCc1ccc2c(n1)NCCC2 (stereo not shown) [Example 18, 3-(3,5-di-tert-butylphenyl)-4-[1-methyl-5-[2-(5,6,7,8-tetrahydro-1,8-naphthyridin-2-yl)ethoxyl]pyrazol-3-yl]butanoic Acid]
IC50 [1]: 1.4 nM | IC50 [2]: 84 nM | IC50 [3]: 620 nM | IC50 [4]: 85 nM

Cn1nc(CC(CC(=O)O)c2cc(Br)cc(C3(C(F)F)CC3)c2)cc1OCCc1ccc2c(n1)NCCC2 (stereo not shown) [Example 19, 3-(3-bromo-5-(1-(difluoromethyl)cyclopropyl)phenyl)-4-(1-methyl-5-(2-(5,6,7,8-tetrahydro-1,8-naphthyridin-2-yl)ethoxy)-1H-pyrazol-3-yl)butanoic Acid]
IC50 [1]: 6.3 nM | IC50 [2]: 6.4 nM | IC50 [3]: 45 nM | IC50 [4]: 8.5 nM

Cn1nc(CC(CC(=O)O)c2cc(C#N)cc(C3(C(F)F)CC3)c2)cc1OCCc1ccc2c(n1)NCCC2 (stereo not shown) [Example 20, 3-(3-cyano-5-(1-(difluoromethyl)cyclopropyl)phenyl)-4-(1-methyl-5-(2-(5,6,7,8-tetrahydro-1,8-naphthyridin-2-yl)ethoxy)-1H-pyrazol-3-yl)butanoic Acid]
IC50 [1]: 3.9 nM | IC50 [2]: 3.6 nM | IC50 [3]: 17 nM | IC50 [4]: 14 nM

Cn1nc(CC(CC(=O)O)c2cc(F)cc(C3(C(F)F)CC3)c2)cc1OCCc1ccc2c(n1)NCCC2 (stereo not shown) [Example 21, 3-(3-(1-(difluoromethyl)cyclopropyl)-5-fluorophenyl)-4-(1-methyl-5-(2-(5,6,7,8-tetrahydro-1,8-naphthyridin-2-yl)ethoxy)-1H-pyrazol-3-yl)butanoic Acid]
IC50 [1]: 3.7 nM | IC50 [2]: 2.5 nM | IC50 [3]: 47 nM | IC50 [4]: 53 nM

Cn1nc(CC(CC(=O)O)c2cc(Cl)cc(C3(C(F)F)CC3)c2)cc1OCCc1ccc2c(n1)NCCC2 (stereo not shown) [Example 22, 3-(3-chloro-5-(1-(difluoromethyl)cyclopropyl)phenyl)-4-(1-methyl-5-(2-(5,6,7,8-tetrahydro-1,8-naphthyridin-2-yl)ethoxy)-1H-pyrazol-3-yl)butanoic Acid]
IC50 [1]: 2.2 nM | IC50 [2]: 3.3 nM | IC50 [3]: 26 nM | IC50 [4]: 17 nM

Cn1nc(CC(CC(=O)O)c2cc(C(F)(F)F)cc(C3(C(F)F)CC3)c2)cc1OCCc1ccc2c(n1)NCCC2 (stereo not shown) [Example 23, 3-(3-(1-(difluoromethyl)cyclopropyl)-5-(trifluoromethyl)phenyl)-4-(1-methyl-5-(2-(5,6,7,8-tetrahydro-1,8-naphthyridin-2-yl)ethoxy)-1H-pyrazol-3-yl)butanoic Acid]
IC50 [1]: 3.8 nM | IC50 [2]: 7.5 nM | IC50 [3]: 38 nM | IC50 [4]: 7.9 nM

Cn1nc(CC(CC(=O)O)c2cc(F)cc(C(C)(C)C(F)(F)F)c2)cc1OCCc1ccc2c(n1)NCCC2 (stereo not shown) [Example 24, 3-(3-fluoro-5-(1,1,1-trifluoro-2-methylpropan-2-yl)phenyl)-4-(1-methyl-5-(2-(5,6,7,8-tetrahydro-1,8-naphthyridin-2-yl)ethoxy)-1H-pyrazol-3-yl)butanoic Acid]
IC50 [1]: 4.4 nM | IC50 [2]: 4.5 nM | IC50 [3]: 110 nM | IC50 [4]: 89 nM

Cn1nc(CC(CC(=O)O)c2cc(C(F)(F)F)cc(C(C)(C)C(F)(F)F)c2)cc1OCCc1ccc2c(n1)NCCC2 (stereo not shown) [Example 25, 4-[1-methyl-5-[2-(5,6,7,8-tetrahydro-1,8-naphthyridin-2-yl)ethoxy]pyrazol-3-yl]-3-[3-(2,2,2-trifluoro-1,1-dimethylethyl)-5-(trifluoromethyl)phenyl]butanoic Acid]
IC50 [1]: 3.1 nM | IC50 [2]: 4.6 nM | IC50 [3]: 25 nM | IC50 [4]: 12 nM

Cn1nc(CC(CC(=O)O)c2cc(Br)cc(C(C)(C)C(F)(F)F)c2)cc1OCCc1ccc2c(n1)NCCC2 (stereo not shown) [Example 26, 3-[3-bromo-5-(2,2,2-trifluoro-1,1-dimethyl-ethyl)phenyl]-4-[1-methyl-5-[2-(5,6,7,8-tetrahydro-1,8-naphthyridin-2-yl)ethoxy]pyrazol-3-yl]butanoic Acid]
IC50 [1]: 6.8 nM | IC50 [2]: 9.6 nM | IC50 [3]: 45 nM | IC50 [4]: 9.3 nM

Cn1nc(CC(CC(=O)O)c2cc(Cl)cc(C(C)(C)C(F)(F)F)c2)cc1OCCc1ccc2c(n1)NCCC2 (stereo not shown) [Example 27, 3-(3-chloro-5-(1,1,1-trifluoro-2-methylpropan-2-yl)phenyl)-4-(1-methyl-5-(2-(5,6,7,8-tetrahydro-1,8-naphthyridin-2-yl)ethoxy)-1H-pyrazol-3-yl)butanoic Acid]
IC50 [1]: 4.4 nM | IC50 [2]: 5.6 nM | IC50 [3]: 47 nM | IC50 [4]: 11 nM

Cn1nc(CC(CC(=O)O)c2cc(C#N)cc(C(C)(C)C(F)(F)F)c2)cc1OCCc1ccc2c(n1)NCCC2 (stereo not shown) [Example 28, 3-[3-cyano-5-(2,2,2-trifluoro-1,1-dimethyl-ethyl)phenyl]-4-[1-methyl-5-[2-(5,6,7,8-tetrahydro-1,8-naphthyridin-2-yl)ethoxyl]pyrazol-3-yl]butanoic Acid Trifluoroacetate]
IC50 [1]: 3.9 nM | IC50 [2]: 10 nM | IC50 [3]: 15 nM | IC50 [4]: 3.5 nM

COCC1(c2cc(Cl)cc(C(CC(=O)O)Cc3cc(OCCc4ccc5c(n4)NCCC5)n(C)n3)c2)CCOCC1 (stereo not shown) [Example 29, 3-(3-chloro-5-(4-(methoxymethyl)tetrahydro-2H-pyran-4-yl)phenyl)-4-(1-methyl-5-(2-(5,6,7,8-tetrahydro-1,8-naphthyridin-2-yl)ethoxy)-1H-pyrazol-3-yl)butanoic Acid]
IC50 [1]: 9.4 nM | IC50 [2]: 5.3 nM | IC50 [3]: 52 nM | IC50 [4]: 9.5 nM

COCC1(c2cc(F)cc(C(CC(=O)O)Cc3cc(OCCc4ccc5c(n4)NCCC5)n(C)n3)c2)CCOCC1 (stereo not shown) [Example 30, 3-(3-fluoro-5-(4-(methoxymethyl)tetrahydro-2H-pyran-4-yl)phenyl)-4-(1-methyl-5-(2-(5,6,7,8-tetrahydro-1,8-naphthyridin-2-yl)ethoxy)-1H-pyrazol-3-yl)butanoic Acid]
IC50 [1]: 6.6 nM | IC50 [2]: 8.1 nM | IC50 [3]: 180 nM | IC50 [4]: 81 nM
